Reference: PMC9922277, “Repositioning Lomitapide to block ZDHHC5-dependant palmitoylation on SSTR5 leads to anti-proliferation effect in preclinical pancreatic cancer models” (Cell Death Discovery, 2023)
Ends that are not written are not given here.

Columns and labels:
ZDHHC5 = target: T1, ZDHHC5 (Homo sapiens, UniProt Q9C0B5); assay: microscale thermophoresis (MST) with labeled ZDHHC5 fragment; format: binding
T1 construct: protein fragment 60-148aa expressed using Yeast

[1] = target: T2, ZDHHC5 protein fragment (60-148aa), ZDHHC5's substrate binding domain (UniProt Q9C0B5 60-148, RED-NHS 2nd Generation dye label where it was the labeled partner (assay without Lomitapide); unlabeled in the assay with Lomitapide); assay: MST; 20 nM labeled ZDHHC5 mixed with unlabeled SSTR5 in 16 serial concentrations (maximum 200 nM), RT, 1.05*PBS; Monolith NT.115, LED 20%, medium MST power; conditions: both partners purified
T2 construct: also called ZDHHC5 substrate domain; source: expressed using Yeast; labeled and purified with the labeling kit
T2 sequence (Q9C0B5 60-148): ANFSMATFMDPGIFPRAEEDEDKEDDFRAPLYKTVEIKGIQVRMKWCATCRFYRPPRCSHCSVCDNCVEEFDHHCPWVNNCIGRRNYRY

[2] = target: T2, ZDHHC5 protein fragment (60-148aa), …; assay: MST; in the presence of 25 uM Lomitapide: 20 nM labeled SSTR5 and 25 uM Lomitapide mixed with unlabeled ZDHHC5 in 16 serial concentrations (maximum 200 nM), RT, 1.05*PBS; conditions: both partners purified

T1 sequence (Q9C0B5 60-148): as above

Kd (ZDHHC5) [µM] | Kd [1] [µM] | Kd [2] [µM] | Molecule
0.509 | – | – | O=C(NC1CCN(CCCCC2(C(=O)NCC(F)(F)F)c3ccccc3-c3ccccc32)CC1)c1ccccc1-c1ccc(C(F)(F)F)cc1 [Lomitapide]
0.088 | – | – | CCCCCCCCCCCCCCCC(=O)O [palmitic acid]
– | 0.00206 | 0.0225 | SSTR5 protein fragment (cytoplasmic tail 307-364aa) (domain or fragment, UniProt P35346 307-364, looked up, also: RED-NHS dye label in the labeled-partner assay, site not given here, also called SSTR5 (307-362 aa); SSTR5 cytoplasmic tail) LSDNFRQSFQKVLCLRKGSGAKDADATEPRPDRIRQQQEATPPAHRAAANGLMQTSKL
